Results on 22 compounds are retold here after ChEMBL document CHEMBL1129893 (Bioorg Med Chem Lett, 1997).

Activity calls are given as the source filed them. The rule behind the calls is not given here.

For the first test, the target named is T1, Estrogen receptor (Homo sapiens, UniProt Q92731+P03372). Kind of test: Displacement of [3H]estradiol from estrogen receptor in MCF-7 cell lysate; Inactive. In kind it is cell-free.
Settings: not given
A general note: Displacement assays read how much labelled ligand stays bound in the presence of the test substance.
On to `O=C(O)c1ccc2c(C(=O)c3ccc(OCCN4CCCCC4)cc3)c(-c3ccc(O)cc3)sc2c1`, for which the Relative binding affinity result is “inactive”.

For `COC(=O)c1ccc(-c2sc3ccccc3c2C(=O)c2ccc(OCCN3CCCCC3)cc2)cc1`, the Relative binding affinity result is “inactive”.

The target in the next test is T1, Estrogen receptor. The settings on record: mcf-7.
Description: Antagonist effect in breast tissue was assayed by inhibition of estrogen stimulated MCF-7 cell proliferation
By IC50 is commonly meant the concentration that inhibits the measured activity by half. Higher therefore signals weaker potency in that assay. For `CCOP(=O)(OCC)c1ccc(-c2sc3cc(O)ccc3c2C(=O)c2ccc(OCCN3CCCCC3)cc2)cc1`, half-maximal inhibition (IC50) required 210 nM.

Turning to `COC(=O)c1ccc2c(C(=O)c3ccc(OCCN4CCCCC4)cc3)c(-c3ccccc3)sc2c1`, the IC50 was found to be 1000 nM.

Take `O=C(O)c1ccc(-c2sc3cc(O)ccc3c2C(=O)c2ccc(OCCN3CCCCC3)cc2)cc1`: half-maximal inhibition (IC50) required 325 nM. Compared with the last compound, the IC50 is about 3.1-fold lower.

With `CC(=O)c1ccc(-c2sc3cc(O)ccc3c2C(=O)c2ccc(OCCN3CCCCC3)cc2)cc1`, it took 32 nM to reach half-maximal inhibition (IC50).

As for `CC(C)COC(=O)c1ccc2c(C(=O)c3ccc(OCCN4CCCCC4)cc3)c(-c3ccc(O)cc3)sc2c1`, the IC50 came to 40 nM.

`C#Cc1ccc(-c2sc3cc(O)ccc3c2C(=O)c2ccc(OCCN3CCCCC3)cc2)cc1` displayed an IC50 of 0.8 nM. Against the preceding compound, the IC50 is about 50-fold lower.

Take `NC(=O)c1ccc(-c2sc3cc(O)ccc3c2C(=O)c2ccc(OCCN3CCCCC3)cc2)cc1`: half-maximal inhibition (IC50) was put at 200 nM. This IC50 lies about 250-fold higher than the previous one.

`COC(=O)c1ccc2c(C(=O)c3ccc(OCCN4CCCCC4)cc3)c(-c3ccc(O)cc3)sc2c1` gave an IC50 of 30 nM.

Compound `NC(=O)c1ccc2c(C(=O)c3ccc(OCCN4CCCCC4)cc3)c(-c3ccc(O)cc3)sc2c1` displayed an IC50 of 1000 nM. This IC50 lies about 33-fold higher than the previous one.

`CCOC(=O)c1ccc(-c2sc3cc(O)ccc3c2C(=O)c2ccc(OCCN3CCCCC3)cc2)cc1` registered an IC50 of 50 nM.

Turning to `C#Cc1ccc2c(C(=O)c3ccc(OCCN4CCCCC4)cc3)c(-c3ccc(O)cc3)sc2c1`, the IC50 was 20 nM.

`CCOP(=O)(OCC)c1ccc2c(C(=O)c3ccc(OCCN4CCCCC4)cc3)c(-c3ccc(O)cc3)sc2c1`: the IC50 came out at 200 nM.

For the compound `COC(=O)c1ccc(-c2sc3cc(O)ccc3c2C(=O)c2ccc(OCCN3CCCCC3)cc2)cc1`, it took 50 nM to reach half-maximal inhibition (IC50). This IC50 is about 4-fold lower than that of the compound before.

Regarding `CN(C)C(=O)c1ccc(-c2sc3cc(O)ccc3c2C(=O)c2ccc(OCCN3CCCCC3)cc2)cc1`, 20 nM corresponded to half-maximal inhibition (IC50).

Take `CC(=O)c1ccc2c(C(=O)c3ccc(OCCN4CCCCC4)cc3)c(-c3ccc(O)cc3)sc2c1`: the IC50 is 60 nM.

`N#Cc1ccc(-c2sc3cc(O)ccc3c2C(=O)c2ccc(OCCN3CCCCC3)cc2)cc1` returned an IC50 of 8 nM. This IC50 lies about 7.5-fold lower than the previous one.

The compound `CCCCOC(=O)c1ccc2c(C(=O)c3ccc(OCCN4CCCCC4)cc3)c(-c3ccc(O)cc3)sc2c1` had an IC50 of 40 nM.

In turn, `COC(=O)c1ccc(-c2sc3ccccc3c2C(=O)c2ccc(OCCN3CCCCC3)cc2)cc1` returned an IC50 of 1000 nM.

Take `COC(=O)c1ccc(-c2sc3cc(C(=O)OC)ccc3c2C(=O)c2ccc(OCCN3CCCCC3)cc2)cc1`: the IC50 came to 1000 nM.

Compound `CNC(=O)c1ccc(-c2sc3cc(O)ccc3c2C(=O)c2ccc(OCCN3CCCCC3)cc2)cc1` gave an IC50 of 40 nM.

In turn, `C=Cc1ccc(-c2sc3cc(O)ccc3c2C(=O)c2ccc(OCCN3CCCCC3)cc2)cc1` showed an IC50 of 7 nM.
